Test results as given in article PMC10586451, “Design, Synthesis, Pharmacological Activities, Structure–Activity Relationship, and In Silico Studies of Novel 5-Substituted-2-(morpholinoimino)-thiazolidin-4-ones” (ACS Omega, 2023).
Where “and” joins values, the source holds several entries; their conditions need not be identical. Equal entries are not always repeated.

Tests used:
[1] = β-carotene-linoleic acid assay (antioxidant); details: mean ± SEM of three parallel measurements
Method: (§1) DMSO solutions of four different concentrations (12.5, 25, 50, and 100 μM) of the synthesized compound 1–26 were prepared. DMSO was used as a control, while BHA and α-TOC were used as antioxidant standards.

[2] = DPPH radical scavenging assay; details: mean ± SEM of three parallel measurements
Method: as §1

[3] = ABTS cation radical scavenging assay; details: mean ± SEM of three parallel measurements
Method: as §1

[4] = CUPRAC assay (Cu(II) reducing power); details: concentration at 0.500 absorbance; mean ± SEM
Method: as §1

[5] = biological target: T1, Acetylcholinesterase (AChE) (Electrophorus electricus, UniProt O42275); experiment: biochemical; details: for SI for AChE: Selectivity index: IC50 for BChE/IC50 for AChE; for IC50: mean ± SEM of three parallel measurements
T1 construct: Acetylcholinesterase (AChE) from electric eel; from tissue; host or cells: electric eel
Method: (§2) Anticholinesterase activity of all was performed according to the Ellman’s method using a 96-well microplate reader. Acetylcholinesterase (AChE) from electric eel and butyrylcholinesterase (BChE) from horse serum were used. Acetylthiocholine iodide and butyrylthiocholine chloride were utilized as substrates. DTNB (5,50-dithiobis(2-nitrobenzoic) acid was used as a coloring agent to measure the anticholinesterase activity.[43] Measurements were obtained in triplicate.

[6] = biological target: T2, butyrylcholinesterase (BChE) (Equus caballus, UniProt P81908); experiment: biochemical; details: for SI for BChE: Selectivity index: IC50 for AChE/IC50 for BChE; for IC50: mean ± SEM of three parallel measurements
T2 construct: butyrylcholinesterase (BChE) from horse serum; from tissue; host or cells: horse serum
Method: as §2

tyrosinase = assay type: biochemical; details: mean ± SEM of three parallel measurements
urease = urease (Canavalia ensiformis, UniProt P07374); experiment: biochemical; details: urease activity IC50, mean ± SEM of three parallel measurements
Sequence of urease (P07374 whole entry, looked up): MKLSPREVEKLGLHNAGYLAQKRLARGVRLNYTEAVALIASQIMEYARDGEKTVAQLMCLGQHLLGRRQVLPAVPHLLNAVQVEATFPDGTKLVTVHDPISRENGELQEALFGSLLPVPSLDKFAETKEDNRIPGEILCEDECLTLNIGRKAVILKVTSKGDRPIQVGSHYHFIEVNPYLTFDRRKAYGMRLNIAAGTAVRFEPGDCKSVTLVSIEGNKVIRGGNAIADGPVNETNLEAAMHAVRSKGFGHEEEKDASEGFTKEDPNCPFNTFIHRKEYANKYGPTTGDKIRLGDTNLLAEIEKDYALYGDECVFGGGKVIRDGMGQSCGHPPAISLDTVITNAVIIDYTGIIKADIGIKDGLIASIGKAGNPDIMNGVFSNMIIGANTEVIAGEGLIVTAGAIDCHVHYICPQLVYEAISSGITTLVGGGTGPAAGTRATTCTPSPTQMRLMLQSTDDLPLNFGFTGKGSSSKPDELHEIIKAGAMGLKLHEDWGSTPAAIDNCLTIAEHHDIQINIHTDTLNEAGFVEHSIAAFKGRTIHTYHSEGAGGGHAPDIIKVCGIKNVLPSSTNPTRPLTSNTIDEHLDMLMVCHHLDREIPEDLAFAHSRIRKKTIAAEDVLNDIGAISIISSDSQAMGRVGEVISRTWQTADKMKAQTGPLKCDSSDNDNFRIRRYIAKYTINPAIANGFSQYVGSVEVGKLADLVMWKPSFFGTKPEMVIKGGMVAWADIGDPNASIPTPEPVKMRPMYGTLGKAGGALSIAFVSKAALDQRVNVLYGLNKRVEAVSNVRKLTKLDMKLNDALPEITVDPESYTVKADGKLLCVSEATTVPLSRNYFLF

T2 sequence (P81908 whole entry): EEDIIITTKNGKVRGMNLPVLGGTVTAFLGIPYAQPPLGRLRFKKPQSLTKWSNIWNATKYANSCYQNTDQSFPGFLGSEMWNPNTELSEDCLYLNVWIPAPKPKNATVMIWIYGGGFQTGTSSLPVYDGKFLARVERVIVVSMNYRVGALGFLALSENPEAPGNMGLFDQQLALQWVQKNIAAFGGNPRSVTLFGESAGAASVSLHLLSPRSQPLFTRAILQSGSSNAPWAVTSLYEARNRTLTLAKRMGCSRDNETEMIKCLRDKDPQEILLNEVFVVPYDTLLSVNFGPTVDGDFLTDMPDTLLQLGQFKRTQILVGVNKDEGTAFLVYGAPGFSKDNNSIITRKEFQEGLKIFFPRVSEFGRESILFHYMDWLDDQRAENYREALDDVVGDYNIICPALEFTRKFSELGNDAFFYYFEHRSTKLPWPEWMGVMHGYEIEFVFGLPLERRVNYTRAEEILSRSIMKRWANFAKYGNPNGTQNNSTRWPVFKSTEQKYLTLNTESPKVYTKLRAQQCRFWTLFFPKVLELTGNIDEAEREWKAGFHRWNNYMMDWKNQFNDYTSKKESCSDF
T1 sequence (O42275 24-633): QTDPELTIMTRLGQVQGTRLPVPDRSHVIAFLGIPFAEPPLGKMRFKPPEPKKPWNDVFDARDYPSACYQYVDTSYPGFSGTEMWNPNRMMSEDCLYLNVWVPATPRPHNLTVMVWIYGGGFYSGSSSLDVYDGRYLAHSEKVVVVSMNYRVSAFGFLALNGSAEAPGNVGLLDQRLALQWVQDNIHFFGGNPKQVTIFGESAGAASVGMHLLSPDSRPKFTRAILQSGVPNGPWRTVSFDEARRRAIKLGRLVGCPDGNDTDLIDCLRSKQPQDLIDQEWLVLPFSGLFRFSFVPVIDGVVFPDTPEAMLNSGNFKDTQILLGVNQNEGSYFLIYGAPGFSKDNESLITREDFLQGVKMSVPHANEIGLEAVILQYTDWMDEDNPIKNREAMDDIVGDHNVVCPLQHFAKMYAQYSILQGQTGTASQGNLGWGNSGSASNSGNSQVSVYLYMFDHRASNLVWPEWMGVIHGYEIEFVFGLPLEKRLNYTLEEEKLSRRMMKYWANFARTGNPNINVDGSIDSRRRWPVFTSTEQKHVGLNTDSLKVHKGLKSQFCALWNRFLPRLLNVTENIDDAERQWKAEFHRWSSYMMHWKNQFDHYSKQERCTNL

O=C1C(=Cc2cccnc2)SC(=NN2CCOCC2)N1c1ccccc1 [Compound 22, 2-(Morpholinoimino)-3-phenyl-5-(pyridin-3-ylmethylene)thiazolidin-4-one]
IC50 [1]: 31.6 ± 0.79 µM
IC50 [2]: 34.77 ± 0.22 µM
IC50 [3]: 30.11 ± 0.28 µM
CUPRAC assay A0.5 [4]: 30.42 ± 0.01 µM
SI for AChE [5]: 1.33
IC50 [5]: 24.8 ± 0.3 µM
SI for BChE [6]: 0.75
IC50 [6]: 33 ± 0.84 µM
IC50 (tyrosinase): 9.13 ± 0.55 mM
IC50 (urease): 26.2 ± 0.47 µM

COc1cc(C=C2SC(=NN3CCOCC3)N(c3ccccc3)C2=O)cc(OC)c1OC [Compound 8, 5-(3,4,5-(Trimethoxy)benzylidene)-2-(morpholinoimino)-3-phenylthiazolidin-4-one]
IC50 [1]: 36.5 ± 0.39 µM
IC50 [2]: 44.06 ± 0.21 µM
IC50 [3]: 32.95 ± 0.28 µM
CUPRAC assay A0.5 [4]: 35.13 ± 0.03 µM
SI for AChE [5]: 1.41
IC50 [5]: 33.61 ± 0.33 µM
SI for BChE [6]: 0.71
IC50 [6]: 47.3 ± 0.77 µM
IC50 (tyrosinase): 25.7 ± 0.39 mM
IC50 (urease): 53.4 ± 0.64 µM

O=C1CSC(=NN2CCOCC2)N1c1ccccc1 [Compound 2, 2-(Morpholinoimino)-3-phenylthiazolidin-4-one]
IC50 [1]: 40.43 ± 0.11 µM
IC50 [2]: 101.9 ± 0.61 µM
IC50 [3]: 31.66 ± 0.13 µM
CUPRAC assay A0.5 [4]: 36.35 ± 0.00 µM
SI for AChE [5]: 1.50
IC50 [5]: 44.3 ± 0.75 µM
SI for BChE [6]: 0.67
IC50 [6]: 66.44 ± 0.41 µM
IC50 (tyrosinase): 30.2 ± 0.61 mM
IC50 (urease): 65.4 ± 0.67 µM

CN(C)c1ccc(C=C2SC(=NN3CCOCC3)N(c3ccccc3)C2=O)cc1 [Compound 10]
IC50 [1]: 34.23 ± 0.2 µM
IC50 [2]: 37.43 ± 0.29 µM
IC50 [3]: 30.1 ± 0.69 µM
CUPRAC assay A0.5 [4]: 28.65 ± 0.00 µM
SI for AChE [5]: 1.42
IC50 [5]: 26.48 ± 0.25 µM
SI for BChE [6]: 0.71
IC50 [6]: 37.53 ± 0.2 µM
IC50 (tyrosinase): 25 ± 0.67 mM
IC50 (urease): 49.3 ± 0.55 µM

O=C1C(=Cc2ccc(N3CCCCC3)cc2)SC(=NN2CCOCC2)N1c1ccccc1 [Compound 13, 2-(Morpholinoimino)-3-phenyl-5-(4-(piperidin-1-yl)benzylidene)thiazolidine-4-one]
IC50 [1]: 20.2 ± 0.14 µM
IC50 [2]: 29 ± 0.29 µM
IC50 [3]: 27.16 ± 0.06 µM
CUPRAC assay A0.5 [4]: 23.66 ± 0.02 µM
SI for AChE [5]: 1.61
IC50 [5]: 20 ± 0.37 µM
SI for BChE [6]: 0.62
IC50 [6]: 32.21 ± 0.11 µM
IC50 (tyrosinase): 26.2 ± 1.11 mM
IC50 (urease): 30.3 ± 0.95 µM

COc1ccc(C=C2SC(=NN3CCOCC3)N(c3ccccc3)C2=O)cc1 [Compound 6, 5-(4-(Methoxy)benzylidene)-2-(morpholinoimino)-3-phenylthiazolidin-4-one]
IC50 [1]: 37.07 ± 0.22 µM
IC50 [2]: 43.46 ± 0.14 µM
IC50 [3]: 30.6 ± 0.05 µM
CUPRAC assay A0.5 [4]: 32.68 ± 0.01 µM
SI for AChE [5]: 1.27
IC50 [5]: 29 ± 0.64 µM
SI for BChE [6]: 0.79
IC50 [6]: 36.81 ± 0.19 µM
IC50 (tyrosinase): 27.99 ± 0.17 mM
IC50 (urease): 50.78 ± 0.08 µM

O=C1C(=Cc2nccs2)SC(=NN2CCOCC2)N1c1ccccc1 [Compound 20]
IC50 [1]: 32.8 ± 0.33 µM
IC50 [2]: 35.2 ± 0.6 µM
IC50 [3]: 31.3 ± 0.77 µM
CUPRAC assay A0.5 [4]: 36.95 ± 0.03 µM
SI for AChE [5]: 1.26
IC50 [5]: 26.8 ± 0.77 µM
SI for BChE [6]: 0.79
IC50 [6]: 34.05 ± 0.06 µM
IC50 (tyrosinase): 21.4 ± 0.31 mM
IC50 (urease): 16.8 ± 0.19 µM

O=C1C(=Cc2ccc(N3CCCC3)cc2)SC(=NN2CCOCC2)N1c1ccccc1 [Compound 12, 2-(Morpholinoimino)-3-phenyl-5-(4-(pyrrolidin-1-yl)benzylidene)thiazolidine-4-one]
IC50 [1]: 16.2 ± 0.66 µM
IC50 [2]: 26.1 ± 0.44 µM
IC50 [3]: 24.7 ± 0.25 µM
CUPRAC assay A0.5 [4]: 20.77 ± 0.03 µM
SI for AChE [5]: 1.40
IC50 [5]: 17.4 ± 0.22 µM
SI for BChE [6]: 0.71
IC50 [6]: 24.4 ± 0.51 µM
IC50 (tyrosinase): 24.8 ± 0.77 mM
IC50 (urease): 24.2 µM and 23.6 µM
